Results: US11298312B2, “Composition comprising niacinamide and picolinamide” (Conopco, Inc., priority 2015, dated 2022)

Test system: psoriasin secretion
Assay: In-vitro generation of AMP (psoriasin) in differentiated NHEK keratinocytes, psoriasin ELISA of culture supernatant
Assay type: cell-based, Human
Conditions: NHEK cells, KGM + 2 mM calcium chloride, 72 h treatment; fold change over control (Example A); concentrations per Table 3
Description: In-Vitro Experiment with Combination of Niacinamide and Picolinamide as Per the Present Invention for Generation of AMP (Psoriasin): The experiment was done using the following protocol: Step 1: Human neonatal primary skin keratinocyte (NHEK) cells was obtained from Lonza®. The experiment was done with the above-mentioned cells with passage between 3 and 4. Then, the cells were seeded (35,000 cells/well) in 24 well plate with keratinocyte growth media (KGM) obtained from Invitrogen®. The plate was then incubated at 37±2° C. in a CO2 incubator for 48 hours. Step 2: After 48 hours of incubation, cell differentiation was induced by replacing media with fresh KGM supplemented with 2 mM calcium chloride solution. This was then followed by incubation at 37±2° C. in a CO2 incubator for 48 hours. Step 3: After that, the cells were treated with different concentration of Niacinamide and picolinamide and their combination at various concentration as per following Table 3 with keratinocyte growth media supplemented with 2 mM calcium chloride solution: Step 4: After the above treatment, cells were again incubated at 37±2° C. in a CO2 incubator for 72 hours Step 5: After 72 h of incubation, cell culture supernatant from each well was collected in a sterile tube. The samples were then stored at −80° C. until used for testing psoriasin secretion by standard ELISA technique using psoriasin ELISA kit obtained from Circulx® (No: CY—8073). In the current experiment, psoriasin was used as a marker for AMP. Step 6: The ELISA method was performed by using 100 μL of cell culture supernatant from each sample. The data is expressed in terms of fold change over control (without Niacinamide and/or picolinamide, Example A).

| Structure (SMILES) | Fold change in psoriasin secretion |
| --- | --- |
| NC(=O)c1cccnc1 [Example B, Niacinamide] | 1.8 |
| NC(=O)c1cccnc1 [Example C, Niacinamide] | 3.3 |
| NC(=O)c1ccccn1 [Example D, picolinamide] | 3.5 |
| NC(=O)c1ccccn1 [Example E, picolinamide] | 3.8 |
